Where a name gives a salt, the structure may show the parent alone.
System: HIV/EBOV pseudovirion
Assay type: cell-based, Ebolavirus Zaire

SMILES | Antiviral effect by time of compound addition
Cc1cn([C@H]2C[C@H](N=[N+]=[N-])[C@@H](CO)O2)c(=O)[nH]c1=O [AZT, Azidothymidine] | still effective even when it was introduced at a very late time points (>8 h)
CN1[C@@H]2CC[C@H]1C[C@@H](OC(c1ccccc1)c1ccccc1)C2 [benztropine, Benztropine mesylate] | started to lose its inhibitory effect when it was added at 2 h post entry and beyond

— publication PMC5666694 (Antiviral research, 2017)
